Experimental data: US12729209B2, “Macrocyclic compounds and methods of treatment” (University of Florida Research Foundation, Incorporated, priority 2020, dated 2026)
Numbered stars: 1 amine (or outer) side, 2 acyl side, 3 side chain; on linkers, the order of the positions; unused ones are H or OH. Square brackets hold non-standard residues; d marks the D form. Peptide text beside a SMILES is read from it. X1 = CN([C@H](C(=O)[*:2])[C@@H](O)C(N)=O)[*:1]; Pro(4S-Me) = C[C@@H]1CN[C@H](C(=O)O)C1; N(OH)Ala = C[C@H](NO)C(=O)O; Lac = C[C@H](O)C(=O)O; Dha = C=C(N)C(=O)O

Key:
tubulin = assay: Tubulin polymerization assay (fluorescence based in vitro kit); format: biochemical; details: tubulin 2 mg/mL, 37° C., 1 hour
Procedure: Tubulin polymerization was performed using fluorescence based in vitro polymerization kit (Cytoskeleton, #BK011P) per the manufacturer recommendation. Briefly, the provided tubulin was reconstituted to 10 mg/mL stock, as recommended, and used at final concentration of 2 mg/mL in 80 mM PIPES pH 6.9, 2.0 mM MgCl2, 0.5 mM EGTA, 1.0 mM GTP and 15% glycerol for the assays. The compound was prepared in 3-fold dilutions and kept on ice until the assay was started. Buffer components and tubulin stocks were kept on ice until use. The assay plate was pre-warmed at 37° C. for 10 minutes and the compounds were added to the plate wells at 5 uL (<10% DMSO) for 1 minute to warm. Fifty microliters of tubulin reaction mix (2 mg/mL in 80 mM PIPES pH 6.9, 2.0 mM MgCl2, 0.5 mM EGTA, 1.0 mM GTP and 15% glycerol) was added to each well and mixed gently with the inhibitor to avoid bubble formation. The plate was read on FlexStation3 reader (Molecular Devices) at 360 nm excitation/450 nm emission, every minute for 1 hours at 37° C. Decrease in fluorescent signal indicated inhibition of polymerization.

HCT116 cells [1] = assay: HCT116 cell cycle analysis (propidium iodide, flow cytometry); format: cell-based, human; details: 320 nM, 1 μM, 3.2 μM, 24 h
Procedure: FIG. 25 depicts a cell cycle analysis. HCT116 cells were treated with GB1 (320 nM, 1 μM, 3.2 μM) or vehicle control (0.25% DMSO) for 24 h and DNA content assessed by flow cytometry of propidium iodide stained cells.
HCT116 cells were seeded in 6-well plates (400,000 cells/well, DMEM/10% FBS and allowed to attach overnight prior to treatment with GB1. Media was replaced by fresh DMEM/10% FBS after 24 h of incubation and treated with compound and solvent control (0.25% DMSO) for 24 h. The medium in each well was collected separately, and the cells washed with 500 μL PBS and collected into the corresponding tubes. Cells were detached using trypsin (Invitrogen) and collected into the corresponding tubes and centrifuged at 400 g for 10 min at 4° C. The supernatant was discarded and the cell pellets were resuspended in 500 μL ice-cold PBS, centrifuged at 400 g for 10 min at 4° C. and supernatant was discarded. The cell pellets were resuspended in 300 μL ice-cold PBS and 700 μL ice-cold EtOH was added slowly to each cell suspension with gentle pipetting. Cells were incubated at −20° C. overnight and centrifuged at 400 g for 10 min at 4° C. next day. […] Fluorescence from propidium iodide-DNA complexes were quantified using FACScan (BD Biosciences LSRFortessa) and data were analyzed using ModFit LT (Verity Software House).

[2] = system: prostate (DU-145) cancer cells; assay: NCI-60 screen, DU-145; format: cell-based; details: NCI-60 data
Source text: (§1) FIG. 27 depicts a heatmap for the performance of GB1 across cell lines in the NCI-60 screen using three different values (growth-inhibitory effect, GI50; cytostatic effect, TGI; cytotoxic effect, LC50; concentration in M).

[3] = system: CCD841-CoN normal epithelial colon cells; assay: MTT cell viability assay, normal colon cells; format: cell-based; details: 48 h treatment
Procedure: (§2) Parental HCT116, HCT116^HIF-1α−/−HIF-2α−/−, HCT116^HIF-1α−/−, HCT116^HIF-2α−/−, HCT116^WT KRAS along with normal colon cell line CCD841-CoN were cultured in Dulbecco's modified Eagle medium (DMEM, Life Technologies, USA) supplemented with 10% Fetal Bovine Serum (FBS, Sigma, USA) and maintained in 5% CO2 at 37° C. HCT116 cells (8,000 cells/well) and normal cells (3,000 cells/well) were seeded in 96-well plates, allowed to attach overnight and then treated with different concentrations of GB1 (1a) or solvent control (0.5% DMSO). Cell viability was measured 48 h following treatment with MTT dye using manufacturer's protocol (Promega). IC50 was determined by non-linear regression analysis using GraphPad Prism 8. Data are represented as average±SD (n=3).

NCI-60 cell lines = details: versus paclitaxel, eribulin, colchicine and vinca bis-indole alkaloid derivatives
Source text: Furthermore, cervical and breast cancers are relevant indications, prompting additional studies in these cell types^35.

HeLa cells = assay: Caspase-3/7 activity (Caspase-Glo 3/7) in HeLa cells; format: cell-based; details: increasing concentrations, 14 h, 24 h and 36 h
Procedure: FIG. 29 depicts that GB1 causes apoptosis in HeLa cells with increased caspase activity. HeLa cells were treated with increasing concentrations of GB1 and combretastatin-4 (CA-4) (100 nM) using 0.5% DMSO as solvent control. Caspase-3/7 activity was measured using Caspase-Glo 3/7 reagent kit at 14 h, 24 h and 36 h. Data represents average of three replicates with ±SD. The p-values were calculated using two-tailed Student t-test; *p<0.05, **p<0.01, ***p<0.005.

[4] = system: HCT116^HIF-1α−/−HIF-2α−/− cells; assay: MTT cell viability assay, isogenic HCT116 double knockout; format: cell-based, human; details: 48 h, versus parental HCT116
Procedure: as §2

VEGFA = assay: HIF target gene (VEGFA) expression by RT-qPCR; format: cell-based, human; details: 3.2 μM (4×IC50), 16 h, parental HCT116 cells, β-actin endogenous control
Procedure: FIG. 26 depicts HIF target gene (VEGFA) expression after 16 h exposure of parental HCT116 cells to GB1 (3.2 μM) or vehicle (0.25% DMSO). RNA was isolated, reverse transcribed and subjected to qPCR using TaqMan analysis. β-actin served as endogenous control. Error bars indicate mean±SD of three replicates (student t test, *p<0.05).
HCT116 cells were seeded in 6-well plates at a density of 4×10^5 per well and incubated overnight for cells to attach. Cells were treated with 3.2 μM GB1 or 0.25% DMSO (vehicle). RNA was isolated 16 h later using the RNeasy mini kit (QIAGEN, Valencia, CA). Total RNA was quantified using NanoDrop 2000. cDNA synthesis was carried out using SuperScript II Reverse Transcriptase (Invitrogen, Carlsbad, CA) and oligo (dT) (Invitrogen) from 2 μg of total RNA. The qPCR after reverse transcription (RT-qPCR) was performed on a 25 μL reaction solution containing a […] aliquot of cDNA, 12.5 μL of TaqMan gene expression master mix, 1.25 μL of probes, and 11 μL RNase-free water. qPCR was carried out on an ABI 7300 sequence detection system using the thermocycler program: 2 min at 50° C., 10 min at 95° C., and 15 s at 95° C. (40 cycles) and 1 min at 60° C. Experiments were performed in triplicate. Probes for target gene: VEGFA (Hs00900055_m1) and for endogenous control: β-actin (Hs99999903_m1). […]

[5] = system: ovarian (OVCAR-3) cancer cells; assay: NCI-60 screen, OVCAR-3; format: cell-based; details: NCI-60 data
Source text: as §1

[6] = system: melanoma (SK-MEL-5) cancer cells; assay: NCI-60 screen, SK-MEL-5; format: cell-based; details: NCI-60 data
Source text: as §1

HCT116^WT KRAS cells = assay: MTT cell viability assay, oncogenic KRAS knockout; format: cell-based, human; details: 48 h, versus parental HCT116
Procedure: as §2

HCT116^HIF-2α−/− cells = assay: MTT cell viability assay, isogenic HCT116 HIF-2α knockout; format: cell-based, human; details: 48 h, compared among isogenic lines
Procedure: as §2

COLO205 cells = assay: NCI-60 screen (sulforhodamine B assay), COLO205; format: cell-based; details: NCI-60 data, read-out: GI50 against COLO205 cells
Source text: as §1

HCT116 cells [7] = assay: NCI-60 screen (sulforhodamine B assay), HCT116; format: cell-based, human; details: NCI-60 data, read-out: GI50 against HCT116 cells
Source text: as §1

HCT116^HIF-1α−/− cells = assay: MTT cell viability assay, isogenic HCT116 HIF-1α knockout; format: cell-based, human; details: 48 h, versus parental HCT116
Procedure: as §2

[8] = system: HCT116 colorectal cancer cells; assay: MTT cell viability assay, parental HCT116; format: cell-based, human; details: for IC50: 48 h treatment, read-out: IC50 against HCT116 colorectal cancer cells
Procedure: as §2

[9] = Qualitative test for Fe(III) chelating ability; format: physicochemical; details: FeCl3 solution in ethanol (5% wt), orange spot
Source text: We applied a solution of GB1 (1a) in CH2Cl2 to reverse TLC (C18) (MeOH/H2O 1:1, v/v), then dipped the TLC into FeCl3 solution in ethanol (5% wt).

[10] = from C=CCON(C(=O)[C@H]([C@@H](O[Si](C)(C)C(C)(C)C)C(=O)NC(c1ccccc1)(c1ccccc1)c1ccccc1)N(C)C(=O)C(C)OC(=O)[C@@H]1CC(C)CN1C(=O)OCC1c2ccccc2-c2ccccc21)[C@@H](C)C(=O)N[C@@H](C[Se]c1ccccc1)C(=O)OCC1c2ccccc2-c2ccccc21; amide bond; PyBOP/HOAt/DIEA; CH2Cl2; 0.61 mM; 25.0 °C; 24.0 h; 2 steps

Compound	inhibition of tubulin polymerization in vitro (tubulin)	cell cycle effect (DNA content) (HCT116 cells [1])	susceptibility of DU-145 prostate cancer cells [2]	effect on the viability of CCD-841CoN normal epithelial colon cells [3]	IC50 ([3]; read-out: IC50 against normal mucosal colon cells)	COMPARE correlation (P) of cytotoxicity profile with antimitotic/tubulin agents (NCI-60 cell lines)	caspase-3/7 activity / apoptosis in HeLa cells (HeLa cells)	potency and efficacy against HCT116^HIF-1α−/−HIF-2α−/− [4]	HIF-1α target gene VEGFA expression (VEGFA)	susceptibility of OVCAR-3 ovarian cancer cells [5]	susceptibility of SK-MEL-5 melanoma cells [6]	potency and efficacy against oncogenic KRAS knockout (HCT116^WT KRAS) (HCT116^WT KRAS cells)	antiproliferative activity, relative susceptibility of HCT116^HIF-2α−/− (HCT116^HIF-2α−/− cells)	GI50 (COLO205 cells)	GI50 (HCT116 cells [7])	potency and efficacy against HCT116^HIF-1α−/− (HCT116^HIF-1α−/− cells)	antiproliferative activity, relative susceptibility of parental HCT116 cells ([8]; 48 h, compared among isogenic lines)	IC50 [8]	Fe(III) chelating ability (FeCl3 on TLC) [9]	ring closure, yield of all isomers [10]
C=C1NC(=O)[C@H](C)N(O)C(=O)[C@H]([C@@H](O)C(N)=O)N(C)C(=O)[C@H](C)OC(=O)[C@@H]2C[C@H](C)CN2C1=O [GB1, Gatorbulin-1] (cyclo([Dha][Pro(4S-Me)][Lac][X1][N(OH)Ala]))	directly inhibits tubulin polymerization	induced G2/M accumulation	susceptible	marginal effect	> 10 µM	0.75-0.85	induces apoptosis	reduced	downregulation	susceptible	susceptible	reduced	most susceptible	92 nM	306 nM	reduced	most susceptible	800 nM	positive reaction	–
C=CCON1C(=O)[C@H]([C@@H](O[Si](C)(C)C(C)(C)C)C(=O)NC(c2ccccc2)(c2ccccc2)c2ccccc2)N(C)C(=O)C(C)OC(=O)[C@@H]2CC(C)CN2C(=O)[C@H](C[Se]c2ccccc2)NC(=O)[C@@H]1C (stereo partly drawn)	–	–	–	–	–	–	–	–	–	–	–	–	–	–	–	–	–	–	–	60.3%
Gatorbulin-2 [GB2]	–	–	–	–	–	–	–	–	–	–	–	–	–	–	–	–	–	> 10000 nM	–	–
